Source: patent publication US20080280943A1, “METHODS AND PACKAGES TO ENHANCE SAFETY WHEN USING IMIQUIMOD TO TREAT CHILDREN DIAGNOSED WITH SKIN DISORDERS” (priority 2007, published 2008)

How the values were obtained:
[1] = test system: molluscum contagiosum (MC) lesions; experiment: Study 1: randomized, vehicle-controlled, double-blind trial in pediatric subjects with molluscum contagiosum, efficacy; type: in vivo, human (pediatric subjects)
Procedure: Aldara® Cream, commercially available via prescription and manufactured by 3M Health Care Limited, Loughborough LE11 1EP England, and distributed by Graceway Pharmaceuticals, LLC, Bristol, Tenn. 37620, is evaluated in two randomized, vehicle-controlled, double-blind trials involving 702 pediatric subjects with molluscum contagiosum (MC) (470 are exposed to Aldara; median age 5 years, range 2-12 years). Subjects apply Aldara® Cream or vehicle 3 times weekly for up to 16 weeks. Complete clearance (no MC lesions) is assessed at Week 18. […] Similar to the studies conducted in adults, the most frequently reported adverse reaction from 2 studies in children with molluscum contagiosum is application site reaction. Adverse events which occur more frequently in Aldara®-treated subjects as compared with vehicle-treated subjects generally resemble those seen in studies in indications approved for adults and also included otitis media (5% Aldara vs. 3% vehicle) and conjunctivitis (3% Aldara® vs. 2% vehicle). Erythema is the most frequently reported local skin reaction. The severe local skin reactions that are reported by Aidara®-treated subjects in the pediatric studies include erythema (28%), edema (8%), scabbing/crusting (5%), flaking/scaling (5%), erosion (2%) and weeping/exudate (2%).
(§1) More particularly, the objective is to evaluate the efficacy of imiquimod cream, 5% (imiquimod) for the treatment of molluscum contagiosum (MC) lesions in pediatric subjects when the cream was applied 3 times per week (3×/wk) for up to 16 weeks. The efficacy of imiquimod is evaluated by assessing MC lesion clearance. The primary efficacy parameter is complete clearance of all MC lesions (complete clinical resolution) from treatment initiation to the week 18/efficacy visit. Secondary efficacy parameters include partial clearance, defined as ≧50% reduction from the baseline lesion count, and the change in total lesion count. Time to complete clearance is also compared between treatment groups. The secondary objective is to evaluate the safety of imiquimod. Safety assessments are conducted throughout the study. Safety was assessed through incidence and severity of adverse events (AEs); local skin reactions (LSRs) of erythema, edema, erosion/ulceration, weeping/exudates, scabbing/crusting, and flaking/scaling/dryness; skin quality assessments; vital signs measurements; general physical examinations; hematology laboratory tests; and concomitant medication use.
This is a randomized, vehicle-controlled, double-blind, parallel group, study that is conducted in children aged 2 to 12 years of age who had ≧2 clinically verified MC lesions. Enrollment is monitored to ensure at least 50% of subjects had at least 5 MC lesions, at least 50% of subjects are under 6 years of age, and a sufficient number of subjects enrolled with periocular lesions. Subjects are randomized 2:1 (imiquimod: vehicle) and apply study cream 3×/wk for up to 16 weeks (or until complete resolution of all MC lesions) to all target MC lesions. Subjects who weigh <25 kg apply up to 2 sachets of study cream, while subjects who weigh ≧25 kg apply up to 3 sachets. At the screening/treatment initiation visit, MC lesions and application area locations are recorded on a body diagram. […] At each study visit, MC lesions are counted and recorded, and safety procedures are performed. […]

[2] = Systemic absorption of imiquimod across affected skin of 22 subjects with extensive MC (serum levels, hematology); type: in vivo, human (subjects aged 2 to 12 years)
Procedure: Systemic absorption of imiquimod across the affected skin of 22 subjects aged 2 to 12 years with extensive MC involving at least 10% of the total body surface area is observed after single and multiple doses at a dosing frequency of 3 applications per week for 4 weeks. The investigator determines the dose applied, i.e., either 1, 2 or 3 packets per dose, based on the size of the treatment area and the subject's weight. […] Children aged 2-5 years receive doses of 12.5 mg (one packet) or 25 mg (two packets) of imiquimod and have median multiple-dose peak serum drug levels of approximately 0.2 or 0.5 ng/ml, respectively. Children aged 6-12 years receive doses of 12.5 mg, 25 mg, or 37.5 mg (three packets) and have median multiple dose serum drug levels of approximately 0.1, 0.15, or 0.3 ng/ml, respectively. Among the 20 subjects with evaluable laboratory assessments, the median WBC count decreases by 1.4*10^9/L and the median absolute neutrophil count decreases by 1.42*10^9/L.

[3] = Safety assessment in the vehicle-controlled MC study (N=323); type: in vivo, human (children aged 2 to 12 years)
Procedure: as §1
This is a randomized, vehicle-controlled, double-blind, parallel group, study that is conducted in children aged 2 to 12 years of age who had ≧2 clinically verified MC lesions. Enrollment is monitored to ensure at least 50% of subjects had at least 5 MC lesions, at least 50% of subjects are under 6 years of age, and a sufficient number of subjects enrolled with periocular lesions. Subjects are randomized 2:1 (imiquimod: vehicle) and apply study cream 3×/wk for up to 16 weeks (or until complete resolution of all MC lesions) to all target MC lesions. […] At the screening/treatment initiation visit, MC lesions and application area locations are recorded on a body diagram. […] At each study visit, MC lesions are counted and recorded, and safety procedures are performed. […] MC lesions are treated 3×/wk for up to 16 weeks, or until determined that all MC lesions are cleared. […]

[4] = 20 subjects with evaluable laboratory assessments

## CC(C)Cn1cnc2c(N)nc3ccccc3c21 [imiquimod, 1-isobutyl-1H-imidazo[4,5-c]-quinolin-4-amine]
[1]; ITT, 108/217, vehicle 45.3%, p=0.4416
  partial clearance rate (≧50% reduction from baseline lesion count) at week 18: 49.8%
[1]; Study 1, ITT, 52/217, cream applied 3 times weekly for up to 16 weeks, vehicle 26% (28/106)
  complete clearance rate (no MC lesions) at Week 18: 24.0%
[1]; dosed 3×/wk for up to 16 weeks
  efficacy versus vehicle cream with respect to complete and partial clearance of MC lesions: not statistically significantly more effective than vehicle cream
[1]; generalized Wilcoxon Test, p=0.7830
  distribution in time to complete clearance versus vehicle: not significantly different
[1]; vehicle 37.3%
  median percent reduction in MC lesions at week 18: 48.1%
[2]; [4]
  decrease in median WBC count: 1.4e+09 L⁻¹
  decrease in median absolute neutrophil count: 1.42e+09 L⁻¹
[2]; children aged 2-5 years, 12.5 mg (one packet)
  median multiple-dose peak serum drug level: approximately 0.2 ng/ml
[2]; children, topical imiquimod (summary statement)
  peak serum imiquimod concentrations following both single and multiple doses: < 2 ng/mL
[2]; human, in vivo, 25 mg, single person, 2 packets of study drug per dose, read-out: Cmax after multiple dosing
  Cmax: 9.66 ng/mL
[2]; summary statement
  median WBC count decreased by: about 1.4 *109/L
  median absolute neutrophil count decreased by: about 1.42 *109/L
[3]; children ages 2 to 12 with MC, dosed 3×/wk for up to 16 weeks
  overall safety conclusion: safe
[3]; none severe in intensity, vehicle 1
  subjects discontinued from the treatment period due to AEs: 2 subjects
[3]; vehicle 19.8%, p=0.013
  subjects reporting at least 1 AE considered possibly or probably related to study drug: 33.6%
